Values of other authors, collected in patent US20120058932A1, “ACTIVE INGREDIENT-PEPTIDE CONSTRUCT FOR EXTRACELLULAR CONCENTRATION” (MAX PLANCK-GESELLSCHAFT ZUR FORDERUNG DER WISSENSCHAFTEN …, priority 2008, published 2012).

Conditions: blood cells vs plasma

## C/C=C/C[C@@H](C)[C@@H](O)[C@H]1C(=O)N[C@@H](CC)C(=O)N(C)CC(=O)N(C)[C@@H](CC(C)C)C(=O)N[C@@H](C(C)C)C(=O)N(C)[C@@H](CC(C)C)C(=O)N[C@@H](C)C(=O)N[C@H](COCCO)C(=O)N(C)[C@@H](CC(C)C)C(=O)N(C)[C@@H](CC(C)C)C(=O)N(C)[C@@H](C(C)C)C(=O)N1C [SDZ IMM 125]
  Concentration in blood cells relative to the surrounding plasma: approximately 8 ×
